Ten compounds from patent EP0294307B1, “3-Arylcarbamoyl-5-aminomethyl-oxazolidines, and their salts with pharmaceutically acceptable acids” (CORTIAL S.A., priority 1987, dated 1988) can be followed below.

The subject of one series is souris. Description: Toxicity: mortality in mice after oral or intraperitoneal administration. The class given is in vivo.
The subject of the next series is candida albicans. Description: In vitro antifungal activity by standard dilution techniques. It is filed as cell-based. To be noted: concentration de 20 microgramme par ml. The source says: In vitro une activité antifongique a été mise en évidence vis à vis de candida albicans pour le COR3296. L'activité observée par des techniques de dilution standard est significative à la concentration de 20 microgramme par ml.

In series [1] the test system is rat génétiquement hypertendu. Description: Arterial blood pressure in genetically hypertensive rats after oral administration. The class given is in vivo. The settings on record: 60mg/kg voie orale. The method, then:
Administré chez le rat génétiquement hypertendu à la dose de 60mg/kg par voie orale le COR3267 entraine une diminution de la pression artérielle de 8, 12 et 14 %, ces variations étant respectivement mesurées 2, 4 et 6 heures après l'administration.

The mark [2] stands for this setting: voie intrapéritonéale, 200mg/kg.

Regarding `N=C1OC(CN2CCN(c3ccccc3)CC2)CN1C(=O)Nc1ccccc1` (stereo not drawn) [COR3262, Phényl carbamoyl-3, imino-2, (phényl-4 pipérazinylméthyl)-5 oxazolidine], the mortalité result in the series with souris (setting [2]) is on record as “aucune mortalité”; with souris (voie orale, 300mg/kg) it was “aucune mortalité”.
Consider `N=C1OC(CN2CCN(c3ccccn3)CC2)CN1C(=O)Nc1ccccc1` (stereo not drawn) [COR3263, Phényl carbamoyl-3 imino-2 ((pyridyl-2)-4 pipérazinylméthyl)-5 oxazolidine], for which the mortalité entry with souris (setting [2]) was “aucune mortalité”; with souris (voie orale, 300mg/kg), “aucune mortalité”.
For the compound `N=C1OC(CN2CCN(c3cccc(C(F)(F)F)c3)CC2)CN1C(=O)Nc1ccccc1` (stereo not drawn) [COR3266, Phényl carbamoyl-3 imino-2 ((trifluorométhyl-3 phényl)-4 pipérazinylméthyl)-5 oxazolidine], the mortalité result was “aucune mortalité” with souris (setting [2]) and “aucune mortalité” with souris (voie orale, 300mg/kg).
As to `O=C(Nc1ccccc1)N1CC(CN2CCN(c3cccc(C(F)(F)F)c3)CC2)OC1=O` (stereo not drawn) [COR3276, Phényl carbamoyl-3 ((trifluorométhyl-3 phényl)-4 pipérazinylméthyl)-5 oxazolidinone-2], the mortalité entry in the series with souris (setting [2]) is “aucune mortalité”; in the series with souris (voie orale, 300mg/kg), “aucune mortalité”.
For `N=C1OC(CN2CCN(c3ccc(F)cc3)CC2)CN1C(=O)Nc1ccccc1` (stereo not drawn) [COR3278, Phényl carbamoyl-3 imino-2 ((fluoro-4 phényl)-4 pipérazinylméthyl)-5 oxazolidine], the mortalité entry in the series on souris (setting [2]) is “aucune mortalité”; in the series on souris (voie orale, 300mg/kg) it was “aucune mortalité”.
For `N=C1OC(CN2CCN(c3cccc(Cl)c3)CC2)CN1C(=O)Nc1ccccc1` (stereo not drawn) [COR3279, Phényl carbamoyl-3 imino-2 ((chloto-3 phényl)-4 pipérazinylméthyl)-5 oxazolidine], the mortalité entry is “aucune mortalité” with souris (setting [2]) and “aucune mortalité” with souris (voie orale, 300mg/kg).
`N=C1OC(CN2CCN(c3ccccc3)CC2)CN1C(=S)Nc1ccccc1` (stereo not drawn) [COR3296, Phényl thiocarbamoyl-3 imino-2 (phényl-4 pipérazinylméthyl)-5 oxazolidine]: the mortalité entry in the series on souris (setting [2]) was “aucune mortalité”; in the series on souris (voie orale, 300mg/kg) it was “aucune mortalité”. The activité antifongique result in the series with candida albicans is “significative”.
As for “Chlorhydrate de la phényl carbamoyl-3 ((chloro-3 phényl)-4 pipérazinylméthyl)-5 oxazolidinone-2 [COR3277]”, the mortalité entry in the series on souris (setting [2]) is listed as “aucune mortalité”; in the series on souris (voie orale, 300mg/kg), “aucune mortalité”.
Consider “Chlorhydrate de la phényl carbamoyl-3 ((fluoro-4 phényl)-4 pipérazinylméthyl)-5 oxazolidinone-2 [COR3265]”, for which the mortalité result in the series on souris (setting [2]) is recorded as “aucune mortalité”; in the series on souris (voie orale, 300mg/kg), “aucune mortalité”.
In the case of “Chlorhydrate de la phényl carbamoyl-3, (phényl-4 pipérazinylméthyl)-5 oxazolidinone-2 [COR3267]”, the mortalité entry is on record as “aucune mortalité” in the series with souris (setting [2]) and “aucune mortalité” in the series with souris (voie orale, 300mg/kg). Also, the “diminution de la pression artérielle” value in series [1] (2 heures après l'administration) is listed as 8%; in series [1] (4 heures après l'administration), 12%; in series [1] (6 heures après l'administration), 14%.
